Consider one compound from PMC12019328, “Discovery of an ApoE4-targeted small-molecule SirT1 enhancer for the treatment of Alzheimer’s disease” (Scientific Reports, 2025).

Some results are limits rather than exact numbers.

The subject of test [1] is hippocampal proteins. The test can be described thus: Global proteomics on hippocampal brain tissue. It is filed as in vivo, mice. The method, then: Hippocampal brain tissue from both DDL-218- and vehicle-treated mice underwent global proteomics analysis, as described in Supplementary Methods.
Liquid chromatography tandem mass spectrometry (LC-MS/MS) was used for proteomic analysis.
Proteins from hippocampal tissue from mice treated with either DDL-218 or vehicle were diluted in T-PER buffer and concentrations adjusted after BCA protein quantitation assay (Thermo Fisher Scientific). The protein disulfide bonds were reduced and alkylated by treatment with 10 mM tris (2-carboxyethyl) phosphine (TCEP) and 40 mM chloroacetamide (CAA) for 10 min at 95°C. SP3 beads were added to each sample concentrated at 25 μL of beads for 100 μg of protein. Samples were washed 3 times with 2x the sample volume of 80% ethanol in the DynaMag™-2 Magnet and protein solutions diluted 5-fold with 50 mM TEAB.
Trypsin was added in a 1:100 (mass trypsin:mass total protein) ratio to target proteins, and the samples were incubated overnight on a rocker at 37°C.
Samples were centrifuged at 16,000 x g for 5 minutes at room temperature. A colorimetric peptide assay (Thermo Fischer Scientific) was run on a sample of each supernatant. The results were used to aliquot […] of protein from each sample, which were then lyophilized in the SpeedVac. Samples were reconstituted in 100mM TEAB, individually labelled using TMT Isobaric Label Reagent Set (Thermo Fischer Scientific), and incubated at room temperature for one hour. Each sample was then incubated at room temperature for 15 minutes with 5uL of 5% hydroxylamine and lyophilized in the SpeedVac. Subsequently, samples were reconstituted in 2% acetonitrile + 0.1% TFA, and a 5uL aliquot of each sample was pooled together. The pooled sample was desalted with C18 Stagetips made from Empore C18 solid phase extraction disks and lyophilized in the SpeedVac. It was then reconstituted in 2% acetonitrile + 0.1% Formic Acid (FA) and transferred to an autosampler vial. LC/MS2 was performed using a nanoLC and orbitrap mass analyzer using a C18 column and DDA/MS2 mass spectrometer method.
Samples were injected (5 μL) onto a reverse phase nanobore HPLC column (AcuTech Scientific, C18, 1.8 μm particle size, 360 μm x 20 cm, 150 μm ID), equilibrated in solvent E and eluted (500 nL/min) with an increasing concentration of solvent F (acetonitrile/water/FA, 98/2/0.1, v/v/v: min/% F; 0/0, 5/3, 18/7, […]
(Framingham, MA)). The effluent from the column was directed to a nanospray ionization source connected to a hybrid quadrupole-Orbitrap mass spectrometer (Q Exactive Plus, Thermo Fisher Scientific) operating in the positive ion data-dependent mode alternating between a full scan (m/z 350-1700, automated gain control (AGC) target 3 x 106, 50 ms maximum injection time, FWHM resolution 70,000 at m/z 200) and up to 10 MS/MS scans (quadrupole isolation of charge states ≥ 2, isolation width 0.7 Th) with optimized fragmentation conditions (normalized collision energy of 32, dynamic exclusion of 30 s, AGC target 1 x 105, 100 ms maximum injection time, FWHM resolution 35,000 at m/z 200). The raw data from both analyses was processed using Proteome Discoverer™ (version 2.4). Tryptic peptides containing amino acid sequences unique to individual proteins were used for identification/quantification of each protein.
Raw data was submitted to a database search using Proteome Discoverer 3.1 [ThermoFischer Scientific]. Using the results for TMT labeling efficiency, sample volumes were adjusted to achieve an equal ratio of protein across TMT labeled samples. Remaining samples were pooled in equal ratio, and the pooled sample was desalted and lyophilized in the SpeedVac overnight.
The pooled sample was fractionated using Pierce High pH Reversed-Phase Peptide Fractionation Kit (Thermo Fischer Scientific) according to the manufacturer’s protocol. The fractions were dried in the SpeedVac and reconstituted in 0.1% formic acid. Samples were transferred to autosampler vials and LC/MS2 was performed as previously described. […]

Test [2] concerns the target hERG (human Ether-a-go-go-Related Gene) (Homo sapiens, UniProt Q12809). Kind of test: hERG. For orientation: Block of hERG is tested as a sign of cardiac risk.

Sequence of hERG (human Ether-a-go-go-Related Gene) (Q12809 whole entry): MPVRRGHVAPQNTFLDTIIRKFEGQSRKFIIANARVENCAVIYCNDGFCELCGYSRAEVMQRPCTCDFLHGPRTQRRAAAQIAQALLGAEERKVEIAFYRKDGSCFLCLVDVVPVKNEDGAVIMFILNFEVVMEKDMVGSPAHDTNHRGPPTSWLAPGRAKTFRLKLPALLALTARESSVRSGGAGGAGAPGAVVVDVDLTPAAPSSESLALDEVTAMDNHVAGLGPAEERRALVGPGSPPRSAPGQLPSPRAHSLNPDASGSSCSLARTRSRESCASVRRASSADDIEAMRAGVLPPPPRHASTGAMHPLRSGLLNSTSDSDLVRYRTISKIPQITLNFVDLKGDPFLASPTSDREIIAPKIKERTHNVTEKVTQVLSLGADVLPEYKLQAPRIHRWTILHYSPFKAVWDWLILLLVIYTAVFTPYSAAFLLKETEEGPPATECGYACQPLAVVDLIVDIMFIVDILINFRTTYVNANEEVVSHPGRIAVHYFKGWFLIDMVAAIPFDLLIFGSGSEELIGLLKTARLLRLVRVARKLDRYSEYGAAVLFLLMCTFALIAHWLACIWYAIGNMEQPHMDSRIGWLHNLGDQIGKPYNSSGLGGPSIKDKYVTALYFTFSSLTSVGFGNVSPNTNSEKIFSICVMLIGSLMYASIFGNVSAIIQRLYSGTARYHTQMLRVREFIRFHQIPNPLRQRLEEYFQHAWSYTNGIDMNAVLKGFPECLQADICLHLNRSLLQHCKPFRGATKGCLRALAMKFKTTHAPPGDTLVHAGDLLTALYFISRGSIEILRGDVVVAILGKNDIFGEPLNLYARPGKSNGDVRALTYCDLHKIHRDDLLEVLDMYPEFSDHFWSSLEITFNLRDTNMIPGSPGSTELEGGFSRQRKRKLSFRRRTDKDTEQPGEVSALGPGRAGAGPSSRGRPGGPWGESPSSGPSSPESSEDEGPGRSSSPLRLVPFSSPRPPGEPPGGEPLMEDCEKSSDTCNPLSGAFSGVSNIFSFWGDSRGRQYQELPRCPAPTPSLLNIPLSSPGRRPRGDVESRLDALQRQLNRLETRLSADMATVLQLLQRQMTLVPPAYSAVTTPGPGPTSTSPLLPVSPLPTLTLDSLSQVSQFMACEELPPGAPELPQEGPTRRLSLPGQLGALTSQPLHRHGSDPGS

On to `CC(N)C(=O)OC(C)(C)Cc1ccncc1` (centres unmarked) [DDL-218], for which the “Abundance Ratio (DDL218/Veh)” value in test [1] (Cep170, hippocampal tissue) came out at 1.36; in test [1] (Fxyd7, hippocampal tissue), 1.317; in test [1] (Luc7l2, hippocampal tissue), 0.793; in test [1] (Nubpl, hippocampal tissue), 1.374; in test [1] (Ptprn2, hippocampal tissue) it was 1.411; in test [1] (Rpl31, hippocampal tissue), 1.22. Besides, the “Abundance Ratio (DDL218/Veh)” value in test [1] (Rps20, hippocampal tissue) turned out to be 1.223; in test [1] (Scfd2, hippocampal tissue) it was 1.338; in test [1] (Shisa6, hippocampal tissue), 1.219; in test [1] (Tbc1d17, hippocampal tissue), 1.25. In test [2], this compound yielded an EC50 of over 10 µM.

In general, EC50 refers to the concentration at which the effect is half-maximal. Low readings indicate a more potent agent, high ones a less potent agent.
